Measured values taken from US20240076272A1, “Activators of Heme Regulated Inhibitor Kinase (HRI)” (The Brigham and Women`s Hospital, Inc., priority 2019, published 2024).
Like-named read-outs stand apart in the source and are kept apart here.

How the values were obtained:
[1] = tested on: CHOP; assay: Western blot, CHOP expression in CRL-2813 cells; assay type: cell-based, human; details: 5 μM, 8 hours, Western blot (FIG. 2B)
Experimental: (§1) FIGS. 2A-2B show HRI activators of the present application induce eIF2α phosphorylation and modify its downstream effectors. In FIG. 2A, CRL-2813 cells were treated with 5 μM of each compound for 2 hours, cell lysates were probed with phosphorylated (P-eIF2α) and total eIF2α (T-eIF2α) and β-actin specific antibodies. In FIG. 2B, CRL-2813 cells were treated with 5 μM HRI activators for 8 hours and lysates were immunoblotted with antibodies against CHOP, p27^KiPl, cyclin D1 and β-actin.
(§2) Cells cultured under recommended media conditions were plated and maintained in serum-containing media without antibiotics in 14-cm plates (Nunc) until reaching 70% confluence. Cells were then treated with compounds for 6 h, washed with cold PBS once, and lysed with M-PER Mammalian Protein Extraction Reagent (Pierce) for 30 min on ice. The cell lysates were centrifuged at 12,000 RPM for 15 min and the supernatants were transferred to fresh tubes and the concentrations were determined by BCA (Pierce). Equal amount of proteins were mixed with Laemmli Sample Buffer, heated at 100° C. for 5 min, separated by SDS-PAGE, and probed with anti-phosphoserine-51-eIF2α (Phos-eIF2α), anti-total eIF2α-specific antibodies (Total-eIF2α) (Biosource International, Hopkinton, MA), anti-CHOP, anti-cyclin D1 or anti-actin (Santa Cruz Biotechnology, CA) using procedures substantially similar to previous reports (see e.g., Aktas et al, Mol. Cell. Biol. 17 (1997) 3850-3857).
(§3) Endogenous eIF2α is the best-known substrate of HRI and the upstream regulator of the eIF2·GTP·Met-tRNAi ternary complex abundance, while CHOP expression is a downstream effector of eIF2α phosphorylation. For assessing eIF2α phosphorylation, blotted cell lysates were treated for two hours with vehicle or selected compounds using antibodies specific for the total-eIF2α and the phosphorylated-eIF2α (T-eIF2α and [PhoS^51]-eIF2α), respectively (see e.g., Aktas et al, J. Nutr. 134 (2004) 2487S-2491S) (see FIG. 2A).

[2] = tested on: endogenous eIF2α; assay: Western blot, phosphorylation of endogenous eIF2α in CRL-2813 cells; assay type: cell-based, human; details: 5 μM, 2 hours, Western blot (FIG. 2A)
Experimental: as §1
Cells cultured under recommended media conditions were plated and maintained in serum-containing media without antibiotics in 14-cm plates (Nunc) until reaching 70% confluence. Cells were then treated with compounds for 6 h, washed with cold PBS once, and lysed with M-PER Mammalian Protein Extraction Reagent (Pierce) for 30 min on ice. The cell lysates were centrifuged at 12,000 RPM for 15 min and the supernatants were transferred to fresh tubes and the concentrations were determined by BCA (Pierce). […]

[3] = tested on: human melanoma CRL-2813 cells; assay: sulforhodamine B (SRB) cell proliferation assay; assay type: cell-based; details: 5 days, read-out: IC50 (concentration that inhibits growth of human melanoma CRL-2813 cells by 50%)
Experimental: Cells were seeded in 96-well plates and maintained for 5 days in the presence of 0.5 μM to 20 μM of individual compound, and cell proliferation was measured by the sulforhodamine B (SRB) assay according to previous reports (see e.g., Palakurthi et al, Cancer Res. 60 (2000) 2919-2925): briefly, at the end of a 5-day treatment, cells were fixed in 10% cold trichloroacetic acid. Cell number was estimated by measuring the remaining bound dye of sulforhodamine B after washing. The percentage of growth was calculated by using the equation: 100×[(T-T0)/(C-T0)], where T and C represent the absorbance in treated and control cultures at Day 5, and T0 at time zero, respectively. If T was less than T0, cell death had occurred and was calculated from 100×[(T-T0)/T0].
All 4-CF3-ΦOcAlkΦUs were tested in the sulforhodamine B (SRB) cell proliferation assay to establish the concentrations that inhibit human melanoma CRL-2813 cells growth by 50% (IC50) (see Table 1). This activity reflects a combined effect of membrane permeability and overall anti-proliferative effects that include on target and off-target effects.

[4] = tested on: cyclin D1; assay: Western blot, cyclin D1 expression in CRL-2813 cells; assay type: cell-based, human; details: 5 μM, 8 hours, Western blot (FIG. 2B)
Experimental: as §1, §2, §3

[5] = tested on: eIF2α phosphorylation (ATF-4 5′UTR luciferase reporter); assay: surrogate eIF2α phosphorylation dual-luciferase reporter (DLR) assay; assay type: cell-based; details: for fold induction at 1.25 µM: read-out: Fold stimulation of ATF-4 Surrogate eIF2α @ 1.25 μM; for fold induction at 5 µM: read-out: Fold stimulation of ATF-4 Surrogate eIF2α @ 5 μM
Description: The dual luciferase expression vector and other plasmids used in the Examples provided herein have been previously reported (see e.g., Ziegeler et al, J. Biol. Chem. 285 (2010) 15408-15419). The dual luciferase surrogate eIF2α phosphorylation assay, has also been previously reported (see e.g., Chen et al, Nat. Chem. Biol. 7 (2011) 610-616). Briefly, a dual Renilla and Firefly luciferase mammalian reporter vector that transcribes both mRNAs from the same bi-directional enhancer/promoter complex was utilized for generation of surrogate eIF2α phosphorylation assay (see e.g., Ziegeler et al, J. Biol. Chem. 285 (2010) 15408-15419). Both mRNAs contained the same 90 nucleotide plasmid derived 5′UTR. In addition, 5′UTR of the Firefly luciferase open reading frame was fused in-frame to the 267 nucleotide ATF-4 5′UTR (see e.g., Chen et al, Nat. Chem. Biol. 7 (2011) 610-616).
Cells expressing firefly and renilla luciferases were assayed with a dual glow luciferase assay kit, per manufacturer's instruction (Promega Inc., Madison, WI). The data calculations were carried out as the ratio of firefly to renilla luciferase signal (see e.g., Ziegeler et al, J. Biol. Chem. 285 (2010) 15408-15419). Dose-response curves were obtained, and triplicate data points were fitted to the logistical sigmoidal model using nonlinear least-squares regression performed in GraphPad Prism 6.
All newly synthesized N,N′-disubstituted ureas were initially evaluated by testing in the surrogate eIF2α phosphorylation dual-luciferase reporter (DLR) assay (see e.g., Chen et al, Nat. Chem. Biol. 7 (2011) 610-616; and Ziegeler et al, J. Biol. Chem. 285 (2010) 15408-15419). Briefly, this assay takes advantage of the fact that activated HRI phosphorylates eIF2α which inhibits eIF2 guanine nucleotide exchange factor eIF2B, responsible for exchanging the GDP in the eIF2·GDP complex for GTP. The reduction in the recycling of eIF2·GDP into eIF2·GTP interferes with the formation of eIF2·GTP·Met-tRNAi ternary complex. […] These include mRNA coding for activating transcription factor 4 (ATF-4) (see e.g., Aktas et al, Oncotarget, 4 (2013) 1606-1617; Aktas et al, Oncotarget, 6 (2015) 6902-6914; and Aktas et al, Proc. Natl. Acad. Sci. U.S.A. 95 (1998) 8280-8285).
In the present assay, firefly (F) luciferase mRNA was fused to the 5′UTR of ATF-4 mRNA that had multiple uORFs, while renilla (R) luciferase mRNA was fused to a 5′UTR lacking any uORFs. Agents that reduce the amount of the eIF2·GTP·Met-tRNAi ternary complex, such as N,N′-disubstituted ureas that activate HRI, increase F luciferase expression while reducing the R luciferase expression, resulting in an increased F/R luciferase ratio. The ureas of the present application were tested at 10 μM, 5 μM, 2.5 μM, and 1.25 μM concentrations in 96-well assay plates (see e.g., Chen et al, Nat. Chem. Biol. 7 (2011) 610-616; and Bai et al, ChemBioChem, 14 (2013) 1255-1262). The activity scores as the F/R ratios were calculated for every compound-treated well and normalized to F/R ratio of vehicle-treated (DMSO) wells in the same plate, arbitrarily set at 1 (F/R=1). Data obtained in the surrogate dual-luciferase eIF2α phosphorylation (DLR) assay for the series of 1-phenyl-3/4-(4-trifluorometyl) phenoxy-cycloalkyl)ureas (4-CF3-ΦcAlkΦUs) and 1-phenyl-3-(5-(4-(trifluoromethyl) phenoxy)pyrimidin-2-yl)ureas (4-CF3-ΦOPyΦUs) described herein are shown in Tables 1-2.

[6] = 1.25 μM, F/R luciferase ratio normalized to DMSO wells (F/R=1)
[7] = 5 μM, F/R luciferase ratio normalized to DMSO wells (F/R=1)

Row | SMILES | IC50 ([3]; Homo sapiens, CRL2813, 120 h) [nM] | melting point [°C] | IC50 [3] [nM] | expression of CHOP relative to DMSO [1] | phosphorylation of endogenous eIF2α [2] | expression of cyclin D1 relative to DMSO [4] | activity in the DLR assay (in words) [5] | fold induction at 1.25 µM [5, 6] | fold induction at 5 µM [5, 7] | Fold stimulation of ATF-4 Surrogate eIF2α @ 1.25 μM [5, 6] [fold] | Fold stimulation of ATF-4 Surrogate eIF2α @ 5 μM [5, 7] [fold]
1 | N#Cc1ccc(F)c(NC(=O)N[C@H]2CC[C@H](Oc3ccc(C(F)(F)F)cc3)CC2)c1 [Compound 6-VI, 1-(5-Cyano-2-fluorophenyl)-3-(trans-4-(4-(trifluoromethyl)phenoxy)cyclohexyl)urea] | > 10000 | 234.6 to 237 |  | did not increase expression of CHOP | least active | did not inhibit the expression of cyclin D1 | inactive | 1 ± 0.3 | 1.5 ± 0.5 |  | 
2 | N#Cc1cc(F)cc(NC(=O)N[C@H]2CC[C@H](Oc3ccc(C(F)(F)F)cc3)CC2)c1 [Compound 9-VI, 1-(3-Cyano-5-fluorophenyl)-3-(trans-4-(4-(trifluoromethyl)phenoxy)cyclohexyl)urea] |  | 219.8 to 222 | 1400 ± 300 |  |  |  |  |  |  | 3.7 ± 0.8 | 6.1 ± 1.1
3 | O=C(Nc1ccc(F)c(F)c1)N[C@H]1CC[C@H](Oc2ccc(C(F)(F)F)cc2)C1 [Compound 10-V, 1-(3,4-Difluorophenyl)-3-((1S,3S)-3-(4-(trifluoromethyl)phenoxy)cyclopentyl)urea] | 5200 ± 1500 | 175.4 to 177.5 |  |  |  |  |  | 0.9 ± 0.2 | 3.5 ± 0.7 |  | 
4 | O=C(Nc1cccc(F)c1F)N[C@H]1C[C@H](Oc2ccc(C(F)(F)F)cc2)C1 [Compound 11-IV, 1-(2,3-Difluorophenyl)-3-(trans-3-(4-(trifluoromethyl)phenoxy)cyclobutyl)urea] | 2300 ± 900 | 205.9 to 208 |  |  |  |  |  | 0.8 ± 0.1 | 6.2 ± 2.7 |  | 
5 | O=C(Nc1cccc(F)c1F)N[C@H]1CC[C@H](Oc2ccc(C(F)(F)F)cc2)CC1 [Compound 11-VI, 1-(2,3-Difluorophenyl)-3-(trans-4-(4-(trifluoromethyl)phenoxy)cyclohexyl)urea] | 1600 ± 2000 | 227.3 to 229.9 |  | increased the expression of CHOP |  | decreased the expression of cyclin D1 |  | 4.7 ± 1 | 9.9 ± 1.3 |  | 

More lines, main results first:

Row | IC50 ([3]; Homo sapiens, CRL2813, 120 h) [nM] | melting point [°C] | IC50 [3] [nM] | SMILES | expression of CHOP relative to DMSO [1] | phosphorylation of endogenous eIF2α [2] | expression of cyclin D1 relative to DMSO [4] | activity in the DLR assay (in words) [5] | fold induction at 1.25 µM [5, 6] | fold induction at 5 µM [5, 7] | Fold stimulation of ATF-4 Surrogate eIF2α @ 1.25 μM [5, 6] [fold] | Fold stimulation of ATF-4 Surrogate eIF2α @ 5 μM [5, 7] [fold]
6 | 5300 ± 1800 | 238.2 to 239.8 |  | Cc1ccc(F)cc1NC(=O)N[C@H]1CC[C@H](Oc2ccc(C(F)(F)F)cc2)CC1 [Compound 7-VI, 1-(5-Fluoro-2-methylphenyl)-3-(trans-4-(4-(trifluoromethyl)phenoxy)cyclohexyl)urea] | increased the expression of CHOP |  | decreased the expression of cyclin D1 |  | 1.8 ± 0.8 | 1.5 ± 0.4 |  | 
7 | 5500 ± 700 | 179.9 to 182 |  | O=C(Nc1ccc(F)c(F)c1)N[C@H]1C[C@H](Oc2ccc(C(F)(F)F)cc2)C1 [Compound 10-IV, 1-(3,4-difluorophenyl)-3-(trans-3-(4-(trifluoromethyl)phenoxy)cyclobutyl)urea] |  |  |  |  | 2.2 ± 0.5 | 4.5 ± 0.4 |  | 
8 | 1300 ± 300 | 228.2 to 229.8 |  | O=C(Nc1ccc(F)c(F)c1)N[C@H]1CC[C@H](Oc2ccc(C(F)(F)F)cc2)CC1 [Compound 10-VI, 1-(3,4-Difluorophenyl)-3-(trans-4-(4-(trifluoromethyl)phenoxy)cyclohexyl)urea] |  |  |  |  | 2.9 ± 0.7 | 5.6 ± 1.2 |  | 
